Reference: BindingDB's records for doi:10.1021/jm00164a020 (Merck Sharp & Dohme Research Laboratories, 1990)

Target: Gastrin/cholecystokinin type B receptor (Cavia porcellus)
Assay: Inhibition of binding of [125I]gastrin to Cholecystokinin type B receptor from guinea pig gastric glands

SMILES	IC50 [µM]
O=C(O)CC[C@H](NC(=O)c1cc2ccccc2[nH]1)C(=O)N(C1CCCCC1)C1CCCCC1	4.1
CCCCCN(CCCCC)C(=O)C(CCC(=O)N1CCCC1)NC(=O)Nc1ccc(Cl)cc1 (centres undefined)	0.43
CCCCCN(CCCCC)C(=O)[C@@H](CCC(=O)O)NC(=O)Nc1cccc(OC)c1	13
CCCCCN(CCCCC)C(=O)C(CCC(=O)OCc1ccccc1)NC(=O)Nc1ccc(Cl)cc1 (centres undefined)	44
